Literature values as cited in patent US20170143622A1, “STABLE LIQUID READY-TO-USE INJECTABLE FORMULATION OF BORTEZOMIB” (DR. REDDY'S LABORATORIES LIMITED, priority 2014, published 2017).
Where two headings read alike, the source gives them in different places.

Legend:
[1] = 25° C.
[2] = ethanol composition, 40° C. and 75% relative humidity, 1 month
[3] = polyethylene glycol (PEG)

Degradation ([1]; ethanol: normal saline solution (2:98, pH 2.8), bortezomib 0.5 mg/ml, 1 month): 20% | Degradation ([1]; polyethylene glycol (PEG) 300: Ethanol:Water (40:10:50), 24 hours): ≤ 20% | Degradation ([1]; propylene glycol (PG): Ethanol:Water (50:10:40), 8 months): 20% | Bortezomib degraded to [2]: 76% | Solubility in PEG [3]: insolubility
SMILES: CC(C)C[C@H](NC(=O)[C@H](Cc1ccccc1)NC(=O)c1cnccn1)B(O)O [bortezomib, [(1R)-3-methyl-1-[[(2S)-1-oxo-3-phenyl-2[(pyrazinylcarbonyl)amino]propyl]amino]butyl]boronic acid]
